The IC50 is the concentration that gives 50% inhibition. One may read the AC50 as the concentration at which the activity in the assay is half-maximal.

One assay addresses T1, Exodeoxyribonuclease V (Escherichia coli (strain K12), UniProt P04993+P07648+P08394).
T1 sequence (P04993 whole entry): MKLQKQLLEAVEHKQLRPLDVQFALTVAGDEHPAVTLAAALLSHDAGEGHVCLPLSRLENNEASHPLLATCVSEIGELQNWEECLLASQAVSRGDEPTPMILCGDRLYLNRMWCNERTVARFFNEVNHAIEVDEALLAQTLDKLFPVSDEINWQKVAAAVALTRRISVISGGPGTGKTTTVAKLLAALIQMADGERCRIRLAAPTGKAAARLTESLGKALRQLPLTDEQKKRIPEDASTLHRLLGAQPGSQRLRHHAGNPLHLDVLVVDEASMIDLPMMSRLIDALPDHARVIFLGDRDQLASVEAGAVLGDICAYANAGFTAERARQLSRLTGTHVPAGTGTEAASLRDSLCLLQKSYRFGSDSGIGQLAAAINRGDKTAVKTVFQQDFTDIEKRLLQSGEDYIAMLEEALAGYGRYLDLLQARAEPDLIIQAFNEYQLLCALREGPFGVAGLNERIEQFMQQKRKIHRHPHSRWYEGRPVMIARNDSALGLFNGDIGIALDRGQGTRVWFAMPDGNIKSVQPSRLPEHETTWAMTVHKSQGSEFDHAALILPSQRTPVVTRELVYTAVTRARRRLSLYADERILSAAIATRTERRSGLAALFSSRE
T1 sequence (P07648 whole entry): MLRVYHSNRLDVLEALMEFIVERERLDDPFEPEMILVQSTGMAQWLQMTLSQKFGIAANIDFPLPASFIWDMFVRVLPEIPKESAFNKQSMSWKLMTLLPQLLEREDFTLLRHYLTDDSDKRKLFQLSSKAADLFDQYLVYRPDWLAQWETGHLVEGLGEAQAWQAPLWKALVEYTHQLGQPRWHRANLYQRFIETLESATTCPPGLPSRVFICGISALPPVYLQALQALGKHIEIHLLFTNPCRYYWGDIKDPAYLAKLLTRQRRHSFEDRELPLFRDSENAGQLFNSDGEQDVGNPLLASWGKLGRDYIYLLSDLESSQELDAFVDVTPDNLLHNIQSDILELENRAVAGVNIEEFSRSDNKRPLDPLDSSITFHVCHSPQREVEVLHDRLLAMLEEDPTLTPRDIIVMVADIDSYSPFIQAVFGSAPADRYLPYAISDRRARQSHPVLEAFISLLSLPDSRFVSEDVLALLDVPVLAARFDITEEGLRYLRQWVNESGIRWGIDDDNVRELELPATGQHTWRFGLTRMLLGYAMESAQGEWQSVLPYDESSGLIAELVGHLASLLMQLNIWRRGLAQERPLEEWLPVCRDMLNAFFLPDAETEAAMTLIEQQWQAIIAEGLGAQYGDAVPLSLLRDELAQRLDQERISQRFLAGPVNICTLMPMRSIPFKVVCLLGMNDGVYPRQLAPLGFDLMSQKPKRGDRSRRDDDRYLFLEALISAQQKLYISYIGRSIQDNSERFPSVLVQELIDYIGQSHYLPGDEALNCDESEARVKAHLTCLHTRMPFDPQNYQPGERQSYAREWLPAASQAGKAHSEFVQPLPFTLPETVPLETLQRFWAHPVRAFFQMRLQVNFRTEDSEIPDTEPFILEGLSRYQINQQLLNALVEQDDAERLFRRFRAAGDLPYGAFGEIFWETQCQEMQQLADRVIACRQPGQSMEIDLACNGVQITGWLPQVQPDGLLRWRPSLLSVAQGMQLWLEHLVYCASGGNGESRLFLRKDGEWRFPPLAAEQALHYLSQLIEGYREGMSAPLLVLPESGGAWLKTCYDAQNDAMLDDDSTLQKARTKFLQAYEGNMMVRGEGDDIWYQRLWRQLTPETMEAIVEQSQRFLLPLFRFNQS
T1 sequence (P08394 whole entry): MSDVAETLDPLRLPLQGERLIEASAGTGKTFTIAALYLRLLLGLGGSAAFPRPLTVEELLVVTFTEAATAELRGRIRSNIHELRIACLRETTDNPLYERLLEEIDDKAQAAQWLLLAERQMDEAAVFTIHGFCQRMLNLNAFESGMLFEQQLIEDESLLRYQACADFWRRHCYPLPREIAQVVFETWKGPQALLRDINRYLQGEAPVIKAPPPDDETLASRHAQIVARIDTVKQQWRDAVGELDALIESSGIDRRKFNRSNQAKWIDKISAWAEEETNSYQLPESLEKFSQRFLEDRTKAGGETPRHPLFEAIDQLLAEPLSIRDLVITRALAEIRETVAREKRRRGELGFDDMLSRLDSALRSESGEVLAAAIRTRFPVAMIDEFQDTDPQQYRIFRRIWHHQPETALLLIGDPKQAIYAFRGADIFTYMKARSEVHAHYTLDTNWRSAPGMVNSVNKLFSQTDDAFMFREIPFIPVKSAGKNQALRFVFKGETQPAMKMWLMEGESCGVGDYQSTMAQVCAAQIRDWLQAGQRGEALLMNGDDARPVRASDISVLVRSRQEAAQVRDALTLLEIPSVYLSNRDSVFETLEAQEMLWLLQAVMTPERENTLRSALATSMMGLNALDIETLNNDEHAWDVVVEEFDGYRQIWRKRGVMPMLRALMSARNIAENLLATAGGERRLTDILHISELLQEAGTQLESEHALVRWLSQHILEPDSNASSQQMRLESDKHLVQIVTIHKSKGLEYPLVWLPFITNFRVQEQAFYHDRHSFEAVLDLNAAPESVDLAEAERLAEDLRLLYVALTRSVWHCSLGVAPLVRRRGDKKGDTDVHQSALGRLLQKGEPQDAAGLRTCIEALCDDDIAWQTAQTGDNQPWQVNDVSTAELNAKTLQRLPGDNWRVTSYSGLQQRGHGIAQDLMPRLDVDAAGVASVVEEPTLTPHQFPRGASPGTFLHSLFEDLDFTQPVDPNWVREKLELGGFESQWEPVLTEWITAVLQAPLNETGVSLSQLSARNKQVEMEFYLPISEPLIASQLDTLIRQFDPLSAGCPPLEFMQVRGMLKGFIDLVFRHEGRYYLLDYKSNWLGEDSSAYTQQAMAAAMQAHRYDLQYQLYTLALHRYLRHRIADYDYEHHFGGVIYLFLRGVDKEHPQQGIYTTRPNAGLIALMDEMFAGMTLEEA
The experiment in a line: RecBCD inhibition via phage-restricted bacterial growth – absorbance, V66 E. coli, mutant T4 phage, counter-screen for AddAB inhibitor project, dose response (AID 492957). Format: functional, cell-based, Escherichia coli str. K-12 substr. MG1655. A general note: The purpose of a counterscreen is to sort out artefacts and off-target activity.

The target of assay [1] is Dual specificity tyrosine-phosphorylation-regulated kinase 1A (Rattus norvegicus, UniProt Q63470). Format: biochemical, Homo sapiens.

The source made the active and inactive calls. Where only a bound is given, the exact number is not on record here.

In the case of `CN1CCc2cc3c(c4c2[C@H]1[C@H](O)c1ccccc1-4)OCO3`, the IC50 on Exodeoxyribonuclease V was > 119 µM (inactive). In assay [1], the AC50 is 0.877 µM (active).
